According to article PMC10391911, “Differential effects of two phosphodiesterase 4 inhibitors against lipopolysaccharide-induced neuroinflammation in mice” (BMC Neuroscience, 2023):
Where two headings read alike, the source gives them in different places.

Columns and labels:
[1] = system: NO production in LPS-induced BV-2 cells; experiment: NO production in LPS-induced BV-2 cells (Griess test); type: cell-based, murine; details: 1 h pretreatment, LPS 1 µg/mL 24 h; for Effect on NO levels: up to 10 µM
Description: (§1) BV-2 cells were seeded at a density of 5 × 10^5 cells/mL in 96-well plates. […] Finally, 1 µg/mL LPS was added to the cell culture medium for 24 h to induce inflammation.

[2] = Bidirectional MDR1-MDCK monolayer permeability; type: in vitro ADME, canine; details: dog, MDCK-MDR1; for Papp at 3 µM: both directions, read-out: Apparent permeability coefficients; for Papp A→B at 3 µM / Papp A→B at 10 µM / Papp A→B at 30 µM: read-out: Papp Apical → Basolateral; for Papp B→A at 3 µM / Papp B→A at 10 µM / Papp B→A at 30 µM: read-out: Papp Basolateral → Apical; for Papp A→B: read-out: Papp in the apical-to-basolateral direction
Description: (§2) MDR1-MDCK cells were seeded at a density of 2 × 10^5 cells/well on the apical side of 24-transwell plates with a pore size of 0.4 μm (Corning Costar, Cambridge, MA, USA). Each basolateral chamber was filled with 0.6 mL medium, and each apical side with 0.2 mL medium containing cells. The plates seeded with cells were incubated for 3 days. The culture medium was replaced on both the apical and basolateral sides 2 days after seeding. Before the experiment, the transepithelial electrical resistance was measured using an epithelial voltohmmeter (Millicell ERS-2; Millipore), where 300 ohms or greater was considered to indicate the formation of a cell monolayer with tight junctions. The cells were rinsed twice with pre-warmed Hank’s balanced salt solution (HBSS) containing 10 mM of HEPES and were incubated in a CO2 incubator for 30 min. […] After equilibration, the solutions containing the test or reference compounds were added to either the apical side (0.2 mL) or basolateral side (0.6 mL) of the wells, and the plates were incubated in a shaking incubator (37℃, 200 rpm). Samples were collected every 30 min. To test for apical-to-basolateral flow, 110 µL sample was removed from each basolateral chamber; to test for basolateral-to-apical flow, 110 µL sample was taken from each apical chamber; then, each well was replenished with 110 µL fresh HBSS. To each sample, 50 µL internal standard (5 ng/mL disopyramide) in water was added. Samples were prepared for analysis using solid-phase extraction, and the sample concentrations were analyzed via LC-MS/MS. The permeability of the tested compounds was evaluated by calculating the apparent permeability coefficient (Papp, cm/s) and the efflux ratio (ER). The Papp was calculated as follows: [drawing 1] where dQ/dt is the initial permeability rate of the compound across the cells (ng/s), A is the surface area of the cell monolayer (cm^2), and C0 is the initial concentration of the donor side (ng/mL). From the apical-to-basolateral and basolateral-to-apical Papp values, the ER was calculated as follows: [drawing 2]

MDR1-MDCK monolayer = experiment: Bidirectional MDR1-MDCK monolayer permeability; type: in vitro ADME, canine; details: for P-gp substrate: ER > 2 indicates drug efflux
Description: as §2

[3] = system: TNF-α production in LPS-induced BV-2 cells; experiment: TNF-α production in LPS-induced BV-2 cells (ELISA); type: cell-based, murine; details: for Effect on TNF-α levels: up to 10 µM; for IC50: Mus musculus, BV-2, read-out: IC50 against TNF-α
Description: as §1

in vivo = details: male, C57BL/6J, mouse; for AUC(0-t): AUClast
Description: Plasma samples were obtained via centrifugation at 15,000 rpm for 3 min and stored at − 20℃ until LC-MS/MS analysis.
The brain-to-plasma ratio (Kp) and unbound Kp (Kp,uu) were calculated as follows: [drawing 5] [drawing 6]
Pharmacokinetic parameters were calculated via non-compartmental analysis using Phoenix WinNonlin, ver. 8.3 (Pharsight, Mountain View, CA, USA).

[4] = In vitro protein-binding assay using equilibrium dialysis, brain homogenate; type: in vitro ADME, mouse
Description: (§3) A rapid equilibrium dialysis device with inserts (cat no. #90,112, Thermo Fisher) was used for the protein-binding assay. […] The samples were incubated for 4 h in a shaking incubator (37℃, 300 rpm). After incubation, 50 µL buffer from the white chamber was added to 50 µL fresh mouse plasma or brain homogenate, and 50 µL dosing solution from the red chamber was added to 50 µL fresh buffer to adjust for matrix effects. To each sample, 200 µL ice-cold acetonitrile with internal standard was added. The samples were centrifuged at 4,000 rpm for 20 min and the supernatants were collected for LC-MS/MS analysis. The unbound fraction of drug (Fu) in plasma and brain tissue was calculated as follows based on previous studies: [drawing 3] [drawing 4]
(§4) where Cprotein-free compartment and Cprotein-containing compartment, D, and dh are the concentrations of drug in the buffer chamber and drug solution chamber, dilution factor, and diluted brain homogenate, respectively.
(§5) The values were calculated using the measured diluted free fractions and the respective dilution factor.

[5] = In vitro protein-binding assay using equilibrium dialysis, plasma; type: in vitro ADME, mouse
Description: as §3, §4, §5

[6] = Brain disposition in mice
Description: Residual blood in the brain was removed from circulation via cardiac perfusion with saline solution.
For both plasma and brain samples, 30 µL each sample was vortexed with 270 µL acetonitrile containing disopyramide as the internal standard for protein precipitation.

[7] = system: TNF-α, IL-1β, and IL-6 levels in plasma and brain; experiment: In vivo LPS-induced neuroinflammation mouse model, cytokine ELISA; details: 10 mg/kg orally once daily for 4 days, LPS 10 mg/kg i.p., samples 8 h after LPS
[8] = 1 h pretreatment, LPS 1 µg/mL 24 h
[9] = C57BL/6J, mouse, brain, po, 10 mg/kg, 4 h after oral 10 mg/kg, read-out: Concentration, Brain
[10] = C57BL/6J, mouse, brain, po, 10 mg/kg, 4 h after oral 10 mg/kg, read-out: Unbound brain concentration
[11] = C57BL/6J, mouse, brain, po, 10 mg/kg, oral 10 mg/kg, converted from ng/g, read-out: Unbound brain concentration
[12] = C57BL/6J, mouse, plasma, po, 10 mg/kg, 4 h after oral 10 mg/kg, read-out: Concentration, Plasma
[13] = C57BL/6J, mouse, plasma, po, 10 mg/kg, 4 h after oral 10 mg/kg, read-out: Unbound plasma concentration

| Structure (SMILES) | Effect on NO levels [1] | Papp at 3 µM ([2]; 3 µM) | Papp A→B at 3 µM ([2]; 3 µM) | Papp B→A at 3 µM ([2]; 3 µM) | Papp A→B at 10 µM ([2]; 10 µM) | Papp B→A at 10 µM ([2]; 10 µM) | Papp A→B at 30 µM ([2]; 30 µM) | Papp B→A at 30 µM ([2]; 30 µM) | Papp A→B ([2]; over 3, 10, and 30 µM) | Permeability class according to FDA guidelines (MDR1-MDCK monolayer) | P-gp substrate (MDR1-MDCK monolayer) | Effect on TNF-α levels [3, 8] | bioavailability (in vivo) | AUC(0-inf) (in vivo; iv, 1 mg/kg) | clearance (in vivo; iv, 1 mg/kg) | half-life (in vivo; iv, 1 mg/kg) | AUC(0-t) (in vivo; iv, 1 mg/kg) | AUC(0-inf) (in vivo; po, 10 mg/kg) | Cmax (in vivo; po, 10 mg/kg) | Tmax (in vivo; po, 10 mg/kg) | other results |
| --- | --- | --- | --- | --- | --- | --- | --- | --- | --- | --- | --- | --- | --- | --- | --- | --- | --- | --- | --- | --- | --- |
| O=C(Nc1c(Cl)cncc1Cl)c1ccc(OC(F)F)c(OCC2CC2)c1 [roflumilast] | dose-dependent decrease | > 23 ×10⁻⁶ cm/s | 25.1 ± 1.28 ×10⁻⁶ cm/s | 23.9 ± 3.61 ×10⁻⁶ cm/s | 44.5 ± 2.53 ×10⁻⁶ cm/s | 40.8 ± 6.48 ×10⁻⁶ cm/s | 113 ± 5.7 ×10⁻⁶ cm/s | 72.2 ± 6.32 ×10⁻⁶ cm/s | > 25 ×10⁻⁶ cm/s | high | not P-gp substrates | dose-dependent decrease | 2.3% | 5070 ± 1100 ng·h/mL | 3.33 mL/min/kg | 3.74 ± 0.71 h | 4890 ± 940 ng·h/mL | 1290 ± 540 ng·h/mL | 150 ± 70 ng/mL | 2.33 ± 1.53 h | IC50 ([1]; Mus musculus, BV-2, read-out: IC50 against NO): 312 nM; IC50 [3, 8]: 12.2 nM; IC50 ([3]; converted from nM): 4.9 ng/mL; half-life (in vivo; po, 10 mg/kg): 7.13 ± 2.86 h; AUC(0-t) (in vivo; po, 10 mg/kg): 1130 ± 540 ng·h/mL; fraction unbound at 4 h, 5 µM ([4]; mouse, brain homogenate): 0.0037 ± 0.002; fraction unbound at 4 h, 5 µM ([5]; mouse, plasma): 0.0126 ± 0.0058; concentration at 4 h [6, 9]: 18.2 ± 12.9 ng/g; concentration at 4 h [6, 10]: 0.07 ng/g; concentration at 4 h [6, 11]: 0.17 nM; concentration at 4 h [6, 12]: 30.6 ± 14.2 ng/mL; concentration at 4 h [6, 13]: 0.39 ng/mL; Effect on TNF-α, IL-1β, and IL-6 levels in plasma and brain [7]: reduced |
| O=C(O)Cc1ccc(Cc2cc(-c3cccc(Cl)c3)nc(C(F)(F)F)c2)cc1 [zatolmilast] | did not have this effect | 3.72 to 7.18 ×10⁻⁶ cm/s | 3.72 ± 0.33 ×10⁻⁶ cm/s | 7.18 ± 1.53 ×10⁻⁶ cm/s | 9.59 ± 0.84 ×10⁻⁶ cm/s | 18 ± 1.37 ×10⁻⁶ cm/s | 70.3 ± 9.58 ×10⁻⁶ cm/s | 126 ± 8.39 ×10⁻⁶ cm/s | > 3.7 ×10⁻⁶ cm/s | moderately high | not P-gp substrates | did not have this effect | 3.7% | 86900 ± 10900 ng·h/mL | 0.167 mL/min/kg | 6.35 ± 0.62 h | 81900 ng·h/mL | 62000 ± 31800 ng·h/mL | 2530 ± 860 ng/mL | 2 ± 1.73 h | efflux ratio at 3 µM ([2]; 3 µM, read-out: ER): 1.92; efflux ratio at 10 µM ([2]; 10 µM, read-out: ER): 1.89; efflux ratio at 30 µM ([2]; 30 µM, read-out: ER): 1.81; efflux ratio ([2]; over 3, 10, and 30 µM, read-out: Efflux ratios (ERs)): < 1.92; Efflux ratios (ERs) (MDR1-MDCK monolayer; over 3, 10, and 30 µM): < 2.0; Vd (in vivo; iv, 1 mg/kg): 0.07 ± 0.01 L/kg; half-life (in vivo; po, 10 mg/kg): 20.4 ± 6.77 h; AUC(0-t) (in vivo; po, 10 mg/kg): 30300 ± 9640 ng·h/mL; fraction unbound at 4 h, 5 µM ([4]; mouse blank brain homogenate, 5 µM, mouse brain homogenate, 4 h dialysis, read-out: Fu, Brain): 0.0014 ± 0.0002; fraction unbound at 4 h, 5 µM ([5]; pooled mouse plasma, 5 µM, mouse plasma, 4 h dialysis, read-out: Fu, Plasma): 0.0026 ± 0.0001; Brain Kp,uu ([6]; 4 h after oral 10 mg/kg, 10 mg/kg): 0.18; Kp at 4 h ([6]; C57BL/6J, mouse, brain and plasma, 4 h after oral 10 mg/kg): 0.33; Kp uu at 4 h ([6]; C57BL/6J, mouse, brain and plasma, po, 10 mg/kg, 4 h after oral 10 mg/kg): < 0.18; concentration at 4 h [6, 9]: 1200 ± 345 ng/g; concentration at 4 h [6, 10]: 1.7 ng/g; concentration at 4 h [6, 11]: 4.2 nM; concentration at 4 h [6, 12]: 3630 ± 890 ng/mL; concentration at 4 h [6, 13]: 9.57 ng/mL; Effect on TNF-α, IL-1β, and IL-6 levels in plasma and brain [7]: did not reduce |
